Our source for the IC50 values is patent US20250115591A1, “NOVEL SULFONAMIDE CARBOXAMIDE COMPOUNDS” (INFLAZOME LIMITED, priority 2017, published 2025).

SMILES strings stand for the structures. Counter-ions that a name gives are not always drawn.

Sequence of NLRP3 (Q96P20 whole entry): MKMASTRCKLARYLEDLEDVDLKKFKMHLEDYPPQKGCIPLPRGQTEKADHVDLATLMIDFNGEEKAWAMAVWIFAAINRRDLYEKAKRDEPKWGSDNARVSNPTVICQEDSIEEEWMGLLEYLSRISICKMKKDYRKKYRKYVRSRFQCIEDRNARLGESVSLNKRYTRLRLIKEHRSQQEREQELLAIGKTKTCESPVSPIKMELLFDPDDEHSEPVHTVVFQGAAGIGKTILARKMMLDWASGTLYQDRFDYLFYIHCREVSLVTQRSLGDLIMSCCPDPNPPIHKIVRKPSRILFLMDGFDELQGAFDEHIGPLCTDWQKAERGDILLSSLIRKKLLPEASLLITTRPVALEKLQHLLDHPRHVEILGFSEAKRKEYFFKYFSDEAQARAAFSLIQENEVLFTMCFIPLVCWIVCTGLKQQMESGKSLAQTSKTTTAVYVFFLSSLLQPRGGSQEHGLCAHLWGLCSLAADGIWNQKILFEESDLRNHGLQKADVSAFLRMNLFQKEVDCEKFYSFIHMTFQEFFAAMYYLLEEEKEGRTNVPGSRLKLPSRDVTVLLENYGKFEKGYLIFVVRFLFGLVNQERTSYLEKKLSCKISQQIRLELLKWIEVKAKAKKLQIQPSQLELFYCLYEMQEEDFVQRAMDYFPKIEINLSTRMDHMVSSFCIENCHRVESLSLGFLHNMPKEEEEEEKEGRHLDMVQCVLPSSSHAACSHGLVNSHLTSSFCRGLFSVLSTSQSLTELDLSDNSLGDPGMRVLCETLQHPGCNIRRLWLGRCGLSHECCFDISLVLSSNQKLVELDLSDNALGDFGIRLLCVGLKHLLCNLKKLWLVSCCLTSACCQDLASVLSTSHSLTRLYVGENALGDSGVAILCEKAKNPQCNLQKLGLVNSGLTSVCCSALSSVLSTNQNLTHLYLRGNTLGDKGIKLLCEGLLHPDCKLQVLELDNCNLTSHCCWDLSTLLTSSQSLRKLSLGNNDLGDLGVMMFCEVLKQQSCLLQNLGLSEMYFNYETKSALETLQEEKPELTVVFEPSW

The target in the experiment is NLRP3 (Homo sapiens (Human), UniProt Q96P20). Nature of the experiment: THP-1 cells pyroptosis assay (LPS + nigericin, resazurin read-out). As to conditions: 1 μg/ml LPS, 5 μM nigericin. The experiment is classed as cell-based. Here is the method:
THP-1 cells (ATCC #TIB-202) were grown in RPMI containing L-glutamine (Gibco 15 #11835) supplemented with 1 mM sodium pyruvate (Sigma #S8636) and penicillin (100 units/ml)/streptomycin (0.1 mg/ml) (Sigma #P4333) in 10% Fetal Bovine Serum (FBS) (Sigma #F0804). The cells were routinely passaged and grown to confluency (˜10^6 cells/ml). On the day of the experiment, THP-1 cells were harvested and resuspended into RPMI medium (without FBS). The cells were then counted and viability (>90%) checked by Trypan blue (Sigma #T8154). Appropriate dilutions were made to give a concentration of 625,000 cells/ml. To this diluted cell solution was added LPS (Sigma #[4524) to give a 1 μg/ml Final Assay Concentration (FAC). 40μ of the final preparation was aliquoted into each well of a 96-well plate. The plate thus prepared was used for compound screening.
The following method step-by-step assay was followed for compound screening. • 1. Seed THP-1 cells (25,000 cells/well) containing 1.0 μg/ml LPS in 40μ of RPMI medium (without FBS) in 96-well, black walled, clear bottom cell culture plates coated with poly-D-lysine (VWR #734-0317) • 2. Add 5 μl compound (8 points half-log dilution, with […]) or vehicle (DMSO 0.1% FAC) to the appropriate wells • 3. Incubate for 3 hrs at 37° C. and 5% CO2 • 4. Add 5 μl nigericin (Sigma #N7143) (FAC 5 μM) to all wells • 5. Incubate for 1 hr at 37° C. and 5% CO2 • 6. At the end of the incubation period, spin plates at 300×g for 3 mins and remove supernatant • 7. Then add 50 μl of resazurin (Sigma #R7017) (FAC 100 μM resazurin in RPMI medium without FBS) and incubate plates for a further 1-2 hrs at 37° C. and 5% CO2 • 8. Plates were read in an Envision reader at Ex 560 nm and Em 590 nm • 9. IC50 data is fitted to a non-linear regression equation (log inhibitor vs response-variable slope 4-parameters)
The IC50 is the midpoint of a concentration-inhibition curve. Take `CCC(=O)N1CCC(S(=O)(=O)NC(=O)Nc2c3c(cc4c2CCC4)CCC3)CC1` [Example 10, N-((1,2,3,5,6,7-Hexahydro-s-indacen-4-yl)carbamoyl)-1-propionylpiperidine-4-sulfonamide, potassium salt]: the half-maximal inhibitory concentration (IC50) lay within 1 to 10 µM.
To `CC(C)C(=O)N1CCC(S(=O)(=O)NC(=O)Nc2c3c(cc4c2CCC4)CCC3)CC1` [Example 11, N-((1,2,3,5,6,7-Hexahydro-s-indacen-4-yl)carbamoyl)-1-isobutyrylpiperidine-4-sulfonamide, potassium salt] belongs 1 to 10 µM; to `COCC(=O)N1CCC(S(=O)(=O)NC(=O)Nc2c3c(cc4c2CCC4)CCC3)CC1` [Example 12, N-((1,2,3,5,6,7-Hexahydro-s-indacen-4-yl)carbamoyl)-1-(2-methoxyacetyl)piperidine-4-sulfonamide, potassium salt], 1 to 10 µM.
Turning to `N#CCN1CCC(S(=O)(=O)NC(=O)Nc2c3c(cc4c2CCC4)CCC3)CC1` [Example 14, 1-(Cyanomethyl)-N-((1,2,3,5,6,7-hexahydro-s-indacen-4-yl)carbamoyl)piperidine-4-sulfonamide, potassium salt], the concentration for half-maximal inhibition (IC50) is 1 to 10 µM.
On to `O=C(Nc1c2c(cc3c1CCC3)CCC2)NS(=O)(=O)C1CCN(C2CCC2)CC1` [Example 15, 1-Cyclobutyl-N-((1,2,3,5,6,7-hexahydro-s-indacen-4-yl)carbamoyl)piperidine-4-sulfonamide, potassium salt], for which the IC50 was 1 to 10 µM.
With `CCCN1CCC(S(=O)(=O)NC(=O)Nc2c3c(cc4c2CCC4)CCC3)CC1` [Example 19, N-((1,2,3,5,6,7-Hexahydro-s-indacen-4-yl)carbamoyl)-1-propyl piperidine-4-sulfonamide, potassium salt], the half-maximal inhibitory concentration (IC50) lay within 1 to 10 µM.
The result for `O=C(Nc1c2c(cc3c1CCC3)CCC2)NS(=O)(=O)C1CCN(C2COC2)CC1` [Example 20, N-((1,2,3,5,6,7-Hexahydro-s-indacen-4-yl)carbamoyl)-1-(oxetan-3-yl)piperidine-4-sulfonamide, potassium salt] reads 1 to 10 µM; that for `COC(=O)CN1CCC(S(=O)(=O)NC(=O)Nc2c3c(cc4c2CCC4)CCC3)CC1` [Example 21, Methyl 2-(4-(N-((1,2,3,5,6,7-Hexahydro-s-indacen-4-yl)carbamoyl)sulfamoyl)piperidin-1-yl)acetate, potassium salt], 1 to 10 µM; that for `O=C(Nc1c2c(cc3c1CCC3)CCC2)NS(=O)(=O)C1CCN(CCF)CC1` [Example 22, 1-(2-Fluoroethyl)-N-((1,2,3,5,6,7-hexahydro-s-indacen-4-yl)carbamoyl)piperidine-4-sulfonamide, potassium salt], 1 to 10 µM.
On to `O=C(Nc1c2c(cc3c1CCC3)CCC2)NS(=O)(=O)C1CCN(C2CC2)CC1` [Example 23, 1-Cyclopropyl-N-((1,2,3,5,6,7-hexahydro-s-indacen-4-yl)carbamoyl)piperidine-4-sulfonamide, potassium salt], for which the IC50 fell in the range of 1 to 10 µM.
The result for `O=C(Nc1c2c(cc3c1CCC3)CCC2)NS(=O)(=O)C1CCN(C(=O)C2CCC2)CC1` [Example 25, 1-(Cyclobutanecarbonyl)-N-((1,2,3,5,6,7-hexahydro-s-indacen-4-yl)carbamoyl)piperidine-4-sulfonamide, potassium salt] reads 1 to 10 µM.
To `O=C(Nc1c2c(cc3c1CCC3)CCC2)NS(=O)(=O)C1CCCN(C(=O)NC2CCC2)C1` (centres unmarked) [Example 27, N-Cyclobutyl-3-(N-((1,2,3,5,6,7-hexahydro-s-indacen-4-yl)carbamoyl)sulfamoyl)piperidine-1-carboxamide, potassium salt] belongs 1 to 10 µM; to `CS(=O)(=O)N1CCC(S(=O)(=O)NC(=O)Nc2c3c(cc4c2CCC4)CCC3)CC1` [Example 29, N-((1,2,3,5,6,7-Hexahydro-s-indacen-4-yl)carbamoyl)-1-(methylsulfonyl)piperidine-4-sulfonamide, potassium salt], 1 to 10 µM.
To `CN1CCC(S(=O)(=O)NC(=O)Nc2c3c(cc4c2CCC4)CCC3)C1` (centres unmarked) [Example 36, N-((1,2,3,5,6,7-Hexahydro-s-indacen-4-yl)carbamoyl)-1-methylpyrrolidine-3-sulfonamide, potassium salt] belongs 1 to 10 µM.
Take `CN(C)C(=O)N1CCC(S(=O)(=O)NC(=O)Nc2c3c(cc4c2CCC4)CCC3)C1` (centres unmarked) [Example 40, 3-(N-((1,2,3,5,6,7-Hexahydro-s-indacen-4-yl)carbamoyl)sulfamoyl)-N,N-dimethylpyrrolidine-1-carboxamide]: the IC50 was in the range of 1 to 10 µM.
In the case of `O=C(Nc1c2c(cc3c1CCC3)CCC2)NS(=O)(=O)C1CN2CCC1CC2` (centres unmarked) [Example 43, N-((1,2,3,5,6,7-Hexahydro-s-indacen-4-yl)carbamoyl) quinuclidine-3-sulfonamide, potassium-salt], the half-inhibitory concentration (IC50) was in the range of 1 to 10 µM.
The result for `CCN1CCC(N2CCC(S(=O)(=O)NC(=O)Nc3c4c(cc5c3CCC5)CCC4)C2)CC1` (centres unmarked) [Example 44, 1-(1-Ethylpiperidin-4-yl)-N-((1,2,3,5,6,7-hexahydro-s-indacen-4-yl)carbamoyl)pyrrolidine-3-sulfonamide, potassium salt] reads 1 to 10 µM.
To `CC(C)N1CCC(S(=O)(=O)NC(=O)Nc2c3c(cc4c2CCC4)CCC3)CC1` [Example 47, N-((1,2,3,5,6,7-Hexahydro-s-indacen-4-yl)carbamoyl)-1-iso-propylpiperidine-4-sulfonamide, potassium salt] belongs 1 to 10 µM; to `CCN1CCC(N2CCC(S(=O)(=O)NC(=O)Nc3c4c(cc5c3CCC5)CCC4)CC2)CC1` [Example 48, 1′-Ethyl-N-((1,2,3,5,6,7-hexahydro-s-indacen-4-yl)carbamoyl)-[1,4′-bipiperidine]-4-sulfonamide, potassium salt], 1 to 10 µM; to `CCN1CC2(CC(S(=O)(=O)NC(=O)Nc3c4c(cc5c3CCC5)CCC4)C2)C1` [Example 50, 2-Ethyl-N-((1,2,3,5,6,7-hexahydro-s-indacen-4-yl)carbamoyl)-2-azaspiro[3.3]heptane-6-sulfonamide, potassium salt], 1 to 10 µM.
The result for `CC(C)N1CC(N2CCC(S(=O)(=O)NC(=O)Nc3c4c(cc5c3CCC5)CCC4)C2)C1` (centres unmarked) [Example 51, N-((1,2,3,5,6,7-Hexahydro-s-indacen-4-yl)carbamoyl)-1-(1-isopropylazetidin-3-yl)pyrrolidine-3-sulfonamide, potassium salt] reads 1 to 10 µM; that for `O=C(Nc1c2c(cc3c1CCC3)CCC2)NS(=O)(=O)C1CCN(C(=O)C(F)(F)F)C1` (centres unmarked) [Example 54, N-((1,2,3,5,6,7-Hexahydro-s-indacen-4-yl)carbamoyl)-1-(2,2,2-trifluoroacetyl)pyrrolidine-3-sulfonamide, potassium salt], 1 to 10 µM.
Regarding `O=C(Nc1c2c(cc3c1CCC3)CCC2)NS(=O)(=O)C1CCCN(CC2CC2)C1` (centres unmarked) [Example 57, 1-(Cyclopropylmethyl)-N-((1,2,3,5,6,7-hexahydro-s-indacen-4-yl)carbamoyl)piperidine-3-sulfonamide, potassium salt], the IC50 fell in the range of 1 to 10 µM.
To `N#CCN1CCCC(S(=O)(=O)NC(=O)Nc2c3c(cc4c2CCC4)CCC3)C1` (centres unmarked) [Example 58, 1-(Cyanomethyl)-N-((1,2,3,5,6,7-hexahydro-s-indacen-4-yl)carbamoyl)piperidine-3-sulfonamide, potassium salt] belongs 1 to 10 µM.
As for `C#CCN1CCCC(S(=O)(=O)NC(=O)Nc2c3c(cc4c2CCC4)CCC3)C1` (centres unmarked) [Example 59, N-((1,2,3,5,6,7-Hexahydro-s-indacen-4-yl)carbamoyl)-1-(prop-2-yn-1-yl)piperidine-3-sulfonamide, potassium salt], the IC50 is 1 to 10 µM.
For the compound `CN1CCCC(S(=O)(=O)NC(=O)Nc2c3c(cc4c2CCC4)CCC3)C1` (centres unmarked) [Example 60, N-((1,2,3,5,6,7-Hexahydro-s-indacen-4-yl)carbamoyl)-1-methylpiperidine-3-sulfonamide, potassium salt], the IC50 lay within 1 to 10 µM.
To `CN(C)C(=O)N1CCC(S(=O)(=O)NC(=O)Nc2c3c(cc4c2CCC4)CCC3)CC1` [Example 61, 4-(N-((1,2,3,5,6,7-Hexahydro-s-indacen-4-yl)carbamoyl)sulfamoyl)-N,N-dimethylpiperidine-1-carboxamide] belongs 1 to 10 µM.
The result for `CC(C)N1CC(N2CCC(S(=O)(=O)NC(=O)Nc3c4c(cc5c3CCC5)CCC4)CC2)C1` [Example 62, N-((1,2,3,5,6,7-Hexahydro-s-indacen-4-yl)carbamoyl)-1-(1-isopropylazetidin-3-yl)piperidine-4-sulfonamide, potassium salt] reads 1 to 10 µM; that for `CC(C)N1CC2(CC(S(=O)(=O)NC(=O)Nc3c4c(cc5c3CCC5)CCC4)C2)C1` [Example 63, N-((1,2,3,5,6,7-Hexahydro-s-indacen-4-yl)carbamoyl)-2-isopropyl-2-azaspiro[3.3]heptane-6-sulfonamide, potassium salt], 1 to 10 µM.
